A short description of data set [1]: Volume of distribution at steady state in mouse at 5 mg/kg, iv. The arrangement: dose 5 mg/kg, route intravenous. In kind it is ADME, organism-based. To be noted: in vivo, read-out: Vdss.
Data set [2] in a line: Cmax in mouse at 20 mg/kg, po. The class given is ADME, organism-based. More on the design: dose 20 mg/kg, route oral. The settings on record: in vivo.
Data set [3] in a line: AUC in mouse at 20 mg/kg, po. In kind it is ADME, organism-based. The arrangement: dose 20 mg/kg, route oral. To be noted: plasma.
Data set [4] in a line: Oral bioavailability in mouse at 20 mg/kg. In kind it is ADME, organism-based. The settings on record: in vivo.
The nature of data set [5]: AUC in mouse at 5 mg/kg, iv. The class given is ADME, organism-based. The arrangement: dose 5 mg/kg, route intravenous. To be noted: plasma.
A short description of data set [6]: Cmax in mouse at 5 mg/kg, iv. The settings on record: in vivo. The arrangement: dose 5 mg/kg, route intravenous. In kind it is ADME, organism-based.
Data set [7] can be described thus: AUC in mouse plasma at 20 mg/kg up to 5 hrs. In kind it is ADME, organism-based. The arrangement: time < 5 hr, dose 20 mg/kg.
Data set [8] in a line: in vitro. To be noted: human, Caco-2.
Data set [9] in a line: in vitro. The settings on record: human, Caco-2. This is another data set of the same source.
A short description of data set [10]: Cmax in ob/ob mouse at 30 mg/kg, po qd measured on day 1. In kind it is ADME, organism-based. More on the design: dose 30 mg/kg, route oral. The settings on record: in vivo.
Data set [11] in a line: AUC in ob/ob mouse at 30 mg/kg, po qd measured on day 37. The class given is ADME, organism-based. The arrangement: dose 30 mg/kg, route oral. The settings on record: plasma.
Data set [12] is described as follows: Cmax in ob/ob mouse at 30 mg/kg, po qd measured on day 37. In kind it is ADME, organism-based. The arrangement: dose 30 mg/kg, route oral. To be noted: in vivo.
The nature of data set [13]: Lipophilicity, log D of the compound at pH 6.8. In kind it is physicochemical. The settings on record: buffer.
Data set [14] can be described thus: AUC in ob/ob mouse at 30 mg/kg, po qd measured on day 1. In kind it is ADME, organism-based. More on the design: dose 30 mg/kg, route oral. The settings on record: plasma.

In the case of `CN1CCN(c2cc(N3CCC[C@@H](C(=O)NCCc4ccc(C#N)cc4)C3)nc(C(F)(F)F)n2)CC1`, the Vd in data set [1] turned out to be 1.6 L/kg. Besides, the Cmax (commonly the maximum level reached in the sampled fluid or tissue) in data set [2] was 1.07 µM; in data set [6], 4.52 µM. Besides, the AUC (in general, concentration integrated over time) in [3] stood at 2.54 µM·h; in data set [5], 2.67 µM·h. Besides, in data set [4], the bioavailability – broadly, dose-corrected exposure relative to a reference, in per cent – is 24%.
As to `N#Cc1ccc(CCNC(=O)[C@@H]2CCCN(c3cc(N4CCC(C(=O)O)CC4)nc(C(F)(F)F)n3)C2)cc1`, the AUC at 5 h in [7] was determined as 0.108 µM·h. Moreover, in the data set “in vitro [8]”, the Papp B→A – broadly, the apparent permeability from the basolateral to the apical side of a cell layer – is 13 ×10⁻⁶ cm/s. For the same compound, the Papp A→B (commonly the apparent permeability from the apical to the basolateral side of a cell layer) in “in vitro [9]” stood at 1.36 ×10⁻⁶ cm/s.
In the same order, the values of `CC1(C(=O)O)CCN(c2cc(N3CCC[C@@H](C(=O)NCCc4ccc(C#N)cc4)C3)nc(C(F)(F)F)n2)CC1` are 1.05 µM·h, 13.5 ×10⁻⁶ cm/s and 1.02 ×10⁻⁶ cm/s.
`N#Cc1ccc(CCNC(=O)[C@@H]2CCCN(c3cc(N4CCC(Oc5ccc(CC(=O)O)cc5)CC4)nc(C(F)(F)F)n3)C2)cc1`: the AUC at 5 h in data set [7] amounted to 5.02 µM·h. Besides, the Papp B→A in “in vitro [8]” was determined as 6.4 ×10⁻⁶ cm/s. Also, the Papp A→B in “in vitro [9]” amounted to 2.12 ×10⁻⁶ cm/s.
Compound `N#Cc1ccc(CCNC(=O)[C@@H]2CCN2c2cc(N3CCC(Oc4ccc(CC(=O)O)cc4)CC3)nc(C(F)(F)F)n2)cc1` yielded an AUC at 5 h in [7] of 14.2 µM·h.
In data set [7], `N#Cc1ccc(CCNC(=O)[C@@H]2CCN2c2cc(N3CCC(Oc4ccc(C(=O)O)cc4)CC3)nc(C(F)(F)F)n2)cc1` yielded an AUC at 5 h of 7.53 µM·h. Compared with the last compound, the AUC at 5 h is about 1.9-fold lower.
With `COc1cc(C2CCN(c3cc(N4CC[C@H]4C(=O)NCCc4ccc(C#N)cc4)nc(C(F)(F)F)n3)CC2)ccc1C(=O)O`, the AUC at 5 h in data set [7] worked out at 3.74 µM·h. The same compound returned a Papp B→A in “in vitro [8]” of 12.9 ×10⁻⁶ cm/s. In “in vitro [9]”, this compound came in with a Papp A→B of 2.7 ×10⁻⁶ cm/s.
In data set [7], `N#Cc1ccc(CCNC(=O)[C@@H]2CCN2c2cc(-c3ccc(-c4ccc(C(=O)O)cc4)cc3)nc(C(F)(F)F)n2)cc1` came in with an AUC at 5 h of 13.9 µM·h.
For `N#Cc1ccc(CCNC(=O)[C@@H]2CCN2c2cc(-c3ccc([C@H]4CC[C@H](C(=O)O)CC4)cc3)nc(C(F)(F)F)n2)cc1`, the Cmax turned out to be 4.77 µM in data set [10], 9.75 µM in data set [2], 12 µM in [6] and 5.17 µM in [12]. For the same compound, the Vd in data set [1] is 1.31 L/kg. The compound further returned an AUC at 5 h in [7] of 11.4 µM·h. Also, the AUC in data set [11] was found to be 37.5 µM·h; in data set [3], 53.8 µM·h; in [5], 13.9 µM·h; in data set [14], 45.5 µM·h. In [4], this compound came in with a bioavailability of 96.5%. Also, in data set [13], the logD – broadly, the decadic logarithm of the distribution of all forms, ionised or not, between an organic phase and buffer at a given pH – came to 2.5.
